In ChEMBL document CHEMBL1152402, “Discovery of a new class of catalytic topoisomerase II inhibitors targeting the ATP-binding site by structure based design. Part I” (Bioorg Med Chem Lett, 2009):

Legend:
[1] = target: T1, DNA topoisomerase 2-alpha (Homo sapiens, UniProt P11388); assay: Inhibition of ATPase activity of human topoisomerase 2 alpha
[2] = target: T1, DNA topoisomerase 2-alpha; assay: Inhibition of ATPase activity of human topoisomerase 2 alpha at 10 uM

T1 sequence (P11388 whole entry): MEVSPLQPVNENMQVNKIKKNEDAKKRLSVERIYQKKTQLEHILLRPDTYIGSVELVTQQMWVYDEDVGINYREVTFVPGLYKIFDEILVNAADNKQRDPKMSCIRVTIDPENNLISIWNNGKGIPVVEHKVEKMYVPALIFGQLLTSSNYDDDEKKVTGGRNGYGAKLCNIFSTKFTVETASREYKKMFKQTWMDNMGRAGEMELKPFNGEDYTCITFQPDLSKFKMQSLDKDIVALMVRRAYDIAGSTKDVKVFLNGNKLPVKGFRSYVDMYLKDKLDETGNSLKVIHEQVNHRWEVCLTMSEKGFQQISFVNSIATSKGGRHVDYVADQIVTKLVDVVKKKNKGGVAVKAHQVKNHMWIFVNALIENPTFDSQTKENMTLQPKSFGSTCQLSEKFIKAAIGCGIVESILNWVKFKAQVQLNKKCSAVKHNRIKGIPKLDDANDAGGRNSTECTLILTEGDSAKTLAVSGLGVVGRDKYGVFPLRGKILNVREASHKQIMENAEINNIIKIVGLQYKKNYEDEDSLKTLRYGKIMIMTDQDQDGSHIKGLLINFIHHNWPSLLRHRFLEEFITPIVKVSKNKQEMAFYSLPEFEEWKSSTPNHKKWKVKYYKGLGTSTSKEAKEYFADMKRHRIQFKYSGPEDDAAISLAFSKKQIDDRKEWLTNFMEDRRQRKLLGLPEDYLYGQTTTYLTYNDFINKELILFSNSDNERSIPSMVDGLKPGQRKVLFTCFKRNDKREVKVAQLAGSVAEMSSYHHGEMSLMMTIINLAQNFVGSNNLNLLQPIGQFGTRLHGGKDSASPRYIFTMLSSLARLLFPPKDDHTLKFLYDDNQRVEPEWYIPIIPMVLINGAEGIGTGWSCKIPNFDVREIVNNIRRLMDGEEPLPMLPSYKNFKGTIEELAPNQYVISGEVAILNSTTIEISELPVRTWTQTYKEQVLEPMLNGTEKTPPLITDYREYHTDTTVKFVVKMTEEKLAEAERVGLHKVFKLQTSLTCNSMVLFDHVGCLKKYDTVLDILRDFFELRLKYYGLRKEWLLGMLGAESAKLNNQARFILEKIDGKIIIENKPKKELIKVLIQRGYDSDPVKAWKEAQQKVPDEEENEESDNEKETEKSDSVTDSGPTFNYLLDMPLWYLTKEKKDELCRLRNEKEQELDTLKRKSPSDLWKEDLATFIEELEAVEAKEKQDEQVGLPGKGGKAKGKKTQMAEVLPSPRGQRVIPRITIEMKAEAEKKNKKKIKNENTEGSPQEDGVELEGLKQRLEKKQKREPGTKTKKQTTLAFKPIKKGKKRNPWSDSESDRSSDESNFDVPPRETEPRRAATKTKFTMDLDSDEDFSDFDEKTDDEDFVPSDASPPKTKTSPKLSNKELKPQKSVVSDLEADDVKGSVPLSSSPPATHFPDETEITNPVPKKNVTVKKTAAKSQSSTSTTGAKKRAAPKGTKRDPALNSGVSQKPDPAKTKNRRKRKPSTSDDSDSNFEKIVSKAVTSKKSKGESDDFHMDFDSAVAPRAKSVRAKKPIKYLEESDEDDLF

| IC50 [1] [nM] | inhibition [2] [%] | SMILES |
| --- | --- | --- |
| 1700 |  | CC(C)(C)Nc1nc(Nc2ccc3ncsc3c2)nc2[nH]cnc12 |
|  | 7 | Cn1cnc2c(NC(C)(C)C)nc(Nc3ccc4ncsc4c3)nc21 |
